From US8183272B2, “Indanyl compounds” (Daiichi Sankyo Company, Limited, priority 2008, dated 2012)

Assays:
PTH secretion = test: Evaluation of PTH secretion promoting activity in rat (blood serum PTH, ELISA); assay type: in vivo; settings: female F344 rat, oral 3 mg/5 mL/kg, Means ± S.D., n = 3; for Blood Serum PTH (1-84) Concentration, 0 minute: before administration
Method: Evaluation of PTH Secretion Promoting Activity in Rat
A 10 to 14-week old female F344 rat (Charles River Japan, Inc.) fasted overnight was anesthetized using ether, and blood serum before the administration was prepared by drawing blood from the jugular vein of the animal. Subsequently, the test compound was orally administered at a dose of 3 mg/5 mL/kg using a solvent (0.5% aqueous methyl cellulose solution containing 5% DMA). Blood was drawn from the jugular vein under ether anesthesia at 5, 15, 30, 60, 120, and 240 minutes after the administration of the test compound, and the blood serum was prepared. The blood serum PTH concentration was measured using rat Intact PTH ELISA kit (manufactured by Immutopics, Inc.).

[1] = biological target: T1, human calcium-sensing receptor (CaSR) (Homo sapiens, UniProt P41180); test: Inhibitory activity on calcium-sensing receptor (CaSR) using intracellular calcium increase as an indicator (FLIPR, CHO/hCaSR); assay type: cell-based; settings: CHO/hCaSR cells; intracellular Ca increase induced by CaCl2; test compound 1.05 to 10,000 nM
T1 construct: expressed in transfected cells; host or cells: CHO cells (CHO/hCaSR)
T1 sequence (P41180 20-1078): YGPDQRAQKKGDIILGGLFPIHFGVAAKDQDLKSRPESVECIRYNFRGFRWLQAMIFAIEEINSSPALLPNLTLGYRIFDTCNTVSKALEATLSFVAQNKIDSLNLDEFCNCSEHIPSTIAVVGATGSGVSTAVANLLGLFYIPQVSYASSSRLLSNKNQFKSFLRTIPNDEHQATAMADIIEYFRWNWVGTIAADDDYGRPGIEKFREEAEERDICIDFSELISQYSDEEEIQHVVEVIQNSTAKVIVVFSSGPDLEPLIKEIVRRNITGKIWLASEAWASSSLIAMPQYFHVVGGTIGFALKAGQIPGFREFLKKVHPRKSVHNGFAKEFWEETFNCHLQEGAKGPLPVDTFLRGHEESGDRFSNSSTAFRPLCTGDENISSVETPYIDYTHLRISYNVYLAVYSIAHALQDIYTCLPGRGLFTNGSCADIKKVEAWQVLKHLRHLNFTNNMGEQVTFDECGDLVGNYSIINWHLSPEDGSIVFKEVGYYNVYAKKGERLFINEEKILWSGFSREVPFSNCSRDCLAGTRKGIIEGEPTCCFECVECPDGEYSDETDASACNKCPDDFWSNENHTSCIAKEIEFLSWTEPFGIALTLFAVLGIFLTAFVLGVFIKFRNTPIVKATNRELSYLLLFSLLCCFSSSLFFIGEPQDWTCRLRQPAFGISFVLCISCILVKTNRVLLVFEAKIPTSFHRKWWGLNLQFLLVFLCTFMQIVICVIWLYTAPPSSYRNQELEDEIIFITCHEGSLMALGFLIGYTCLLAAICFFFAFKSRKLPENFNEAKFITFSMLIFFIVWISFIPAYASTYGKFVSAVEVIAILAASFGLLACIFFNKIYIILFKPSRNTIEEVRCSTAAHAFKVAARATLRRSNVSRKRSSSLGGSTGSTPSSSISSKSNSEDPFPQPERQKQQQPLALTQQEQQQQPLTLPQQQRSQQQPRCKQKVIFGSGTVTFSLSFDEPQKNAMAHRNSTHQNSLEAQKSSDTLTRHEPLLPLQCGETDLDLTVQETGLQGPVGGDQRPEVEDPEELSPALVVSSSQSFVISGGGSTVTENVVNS
Method: Evaluation of inhibitory activity on calcium-sensing receptor (CaSR) using intracellular calcium increase as an indicator
The preparation which is prepared by adding CHO/hCaSR to F12 medium (manufactured by Invitrogen) containing 10% fetal bovine serum to have 2×10^5 cells/mL was applied to a 384-well in an amount of 50 μL/well, and then incubated overnight in a CO2 incubator. The culture supernatant was completely removed, the assay buffer (20 mM HEPES, HBSS (Ca and Mg free) containing 2.5 mM probenecid, pH 7.4) containing Calcium 3 (manufactured by Molecular Devices), i.e., a fluorescent intracellular calcium indicator, was added thereto in an amount of 25 μL/well, and the mixture was maintained for 1 hour in a CO2 incubator. Meanwhile, Calcium 3 was prepared according to the protocol enclosed in FLIPR Calcium 3 Assay Kit (manufactured by Molecular Devices). After maintaining it for 1 hour, a solution in which the test compound is prepared to have 2.1 to 20,000 nM (final concentration of 1.05 to 10,000 nM) by an assay buffer was added thereto in an amount of 25 μL/well, and maintained for 15 minutes in a CO2 incubator. Then, the CaCl2 solution prepared to have […] by using the assay buffer was added in an amount of 25 μL/well, and the resulting intracellular Ca increase (i.e., fluorescence intensity) was measured over time using a fluorescence imaging plate reader (FLIPR, manufactured by Molecular Devices). From the data obtained, the difference between the fluorescence intensity before the addition of CaCl2 solution and the maximum fluorescence intensity after the addition of CaCl2 solution was calculated, and the 50% inhibition concentration (IC50) of the test compound was obtained.

Row | Structure (SMILES) | Blood Serum PTH (1-84) Concentration, After 5 minutes (PTH secretion) [pg/mL] | Blood Serum PTH (1-84) Concentration, After 15 minutes (PTH secretion) [pg/mL] | Blood Serum PTH (1-84) Concentration, After 30 minutes (PTH secretion) [pg/mL] | Blood Serum PTH (1-84) Concentration, After 60 minutes (PTH secretion) [pg/mL] | Blood Serum PTH (1-84) Concentration, After 120 minutes (PTH secretion) [pg/mL] | Blood Serum PTH (1-84) Concentration, After 240 minutes (PTH secretion) [pg/mL] | Blood Serum PTH (1-84) Concentration, 0 minute (PTH secretion) [pg/mL] | IC50 [1] [nM]
1 | Cc1cccc([C@@H](C)OC[C@H](O)CNC(C)(C)CC2Cc3ccccc3C2)c1CCC(=O)O [Example 4, 3-{2-[(1R)-1-{[(2R)-3-{[1-(2,3-Dihydro-1H-inden-2-yl)-2-methylpropan-2-yl]amino}-2-hydroxypropyl]oxy}ethyl]-6-methylphenyl}propanoic acid] | 68.2 ± 6.0 | 489.1 ± 106.0 | 538.6 ± 155.1 | 117.0 ± 33.7 | 108.8 ± 27.4 | 91.9 ± 24.5 | 20.5 ± 6.6 | –
2 | C[C@@H](OC[C@H](O)CNC1(CC2Cc3ccccc3C2)CC1)c1ccccc1CCC(=O)O [Example 14, 3-{2-[(1R)-1-{[(2R)-3-{[1-(2,3-Dihydro-1H-inden-2-ylmethyl)cyclopropyl]amino}-2-hydroxypropyl]oxy}ethyl]phenyl}propanoic acid] | 211.6 ± 28.4 | 471.7 ± 112.8 | 146.1 ± 45.2 | 78.9 ± 5.0 | 81.8 ± 4.9 | 94.3 ± 15.7 | 62.8 ± 11.4 | ≤ 2510
